Measured values taken from PubChem BioAssay AID248 (DTP/NCI, 2004).
“And” between values parts separate entries of the source, which are not always exact repeats. Equal entries are not always repeated. Toxic doses and inconclusive results are not listed.

Test system: L1210 leukemia ip in BDF1 mice, survival T/C
Test: NCI In Vivo Anticancer Drug Screen. Data for tumor model L1210 Leukemia (intraperitoneal) in B6D2F1 (BDF1) mice
Conditions: endpoint: mean survival time, higher = longer survival
Procedure, shortened: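 Mice bearing the transplanted tumor received compound or vehicle. Survival of the treated group was divided by that of the vehicle-treated control group to give the ratio.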

COC12C(COC(N)=O)C3=C(C(=O)C(C)=C(N)C3=O)N1CC1C2N1C (stereo not given)
T/C (dose: 0.37 mg/kg/injection, schedule: Q01DX009 (ip), vehicle: saline): 106 % of control | T/C (dose: 0.7 mg/kg/injection, schedule: Q## X040 (ip), vehicle: saline): 106 % of control | T/C (dose: 0.75 mg/kg/injection, schedule: Q01DX009 (ip), vehicle: saline): 117 % of control | T/C (dose: 1.25 mg/kg/injection, schedule: Q01DX Z (ip), vehicle: carboxymethylcellulose (CMC)): 93 % of control | T/C (dose: 1.4 mg/kg/injection, schedule: Q## X040 (ip), vehicle: saline): 118 % of control | T/C (dose: 1.5 mg/kg/injection, schedule: Q01DX009 (ip), vehicle: saline): 121 % of control | T/C (dose: 1.5 mg/kg/injection, schedule: Q## X003 (ip), vehicle: saline): 117 % of control | T/C (dose: 2.0 mg/kg/injection, schedule: Q01DX009 (ip), vehicle: Klucel (hydroxypropylcellulose) (HPC)): 120 % of control | T/C (dose: 2.0 mg/kg/injection, schedule: Q01DX009 (ip), vehicle: saline): 165 % of control | T/C (dose: 2.0 mg/kg/injection, schedule: Q01DX009 (sc), vehicle: saline): 109 % of control | T/C (dose: 2.0 mg/kg/injection, schedule: Q01DX015 (ip), vehicle: saline): 115 % of control and 116 % of control and 121 % of control | T/C (dose: 2.2 mg/kg/injection, schedule: Q01DX007 (ip), vehicle: carboxymethylcellulose (CMC)): 123 % of control | T/C (dose: 2.5 mg/kg/injection, schedule: Q01DX Z (ip), vehicle: carboxymethylcellulose (CMC)): 97 % of control | T/C (dose: 3.0 mg/kg/injection, schedule: Q01DX001 (ip), vehicle: saline): 116 % of control | T/C (dose: 3.0 mg/kg/injection, schedule: Q## X003 (ip), vehicle: saline): 112 % of control | T/C (dose: 3.0 mg/kg/injection, schedule: Q## X008 (ip), vehicle: saline): 116 % of control | T/C (dose: 3.0 mg/kg/injection, schedule: Q## X040 (ip), vehicle: saline): 119 % of control | T/C (dose: 3.35 mg/kg/injection, schedule: Q01DX015 (ip), vehicle: carboxymethylcellulose (CMC)): 121 % of control | T/C (dose: 3.5 mg/kg/injection, schedule: Q01DX015 (ip), vehicle: saline): 123 % of control | T/C (dose: 4.0 mg/kg/injection, schedule: Q## X024 (ip), vehicle: saline): 103 % of control | T/C (dose: 4.4 mg/kg/injection, schedule: Q## X004 (ip), vehicle: saline): 114 % of control | T/C (dose: 5.0 mg/kg/injection, schedule: Q01DX007 (ip), vehicle: carboxymethylcellulose (CMC)): 156 % of control | T/C (dose: 5.0 mg/kg/injection, schedule: Q01DX009 (oral), vehicle: saline): 122 % of control | T/C (dose: 5.0 mg/kg/injection, schedule: Q01DX015 (ip), vehicle: saline): 122 % of control | T/C (dose: 5.0 mg/kg/injection, schedule: Q01DX Z (ip), vehicle: carboxymethylcellulose (CMC)): 123 % of control | T/C (dose: 6.0 mg/kg/injection, schedule: Q01DX009 (ip), vehicle: saline): 151 % of control and 164 % of control | T/C (dose: 6.0 mg/kg/injection, schedule: Q01DX015 (ip), vehicle: carboxymethylcellulose (CMC)): 156 % of control | T/C (dose: 6.0 mg/kg/injection, schedule: Q## X008 (ip), vehicle: saline): 112 % of control | T/C (dose: 6.7 mg/kg/injection, schedule: Q## X004 (ip), vehicle: saline): 121 % of control | T/C (dose: 7.5 mg/kg/injection, schedule: Q01DX007 (ip), vehicle: carboxymethylcellulose (CMC)): 158 % of control | T/C (dose: 7.5 mg/kg/injection, schedule: Q01DX015 (ip), vehicle: carboxymethylcellulose (CMC)): 163 % of control | T/C (dose: 8.0 mg/kg/injection, schedule: Q01DX009 (ip), vehicle: saline): 171 % of control and 176 % of control | T/C (dose: 8.0 mg/kg/injection, schedule: Q01DX015 (ip), vehicle: saline): 150 % of control and 153 % of control | T/C (dose: 8.0 mg/kg/injection, schedule: Q## X008 (ip), vehicle: saline): 104 % of control | T/C (dose: 8.0 mg/kg/injection, schedule: Q## X016 (ip), vehicle: saline): 96 % of control | T/C (dose: 8.0 mg/kg/injection, schedule: Q## X024 (ip), vehicle: saline): 111 % of control | T/C (dose: 10.0 mg/kg/injection, schedule: Q01DX Z (ip), vehicle: carboxymethylcellulose (CMC)): 151 % of control and 169 % of control | T/C (dose: 11.25 mg/kg/injection, schedule: Q01DX007 (ip), vehicle: carboxymethylcellulose (CMC)): 150 % of control | T/C (dose: 12.0 mg/kg/injection, schedule: Q01DX009 (ip), vehicle: saline): 153 % of control and 167 % of control | T/C (dose: 12.0 mg/kg/injection, schedule: Q02DX008 (ip), vehicle: saline): 154 % of control | T/C (dose: 15.0 mg/kg/injection, schedule: Q01DX001 (ip), vehicle: saline): 123 % of control | T/C (dose: 15.0 mg/kg/injection, schedule: Q## X003 (ip), vehicle: saline): 162 % of control | T/C (dose: 15.0 mg/kg/injection, schedule: Q## X004 (ip), vehicle: saline): 150 % of control | T/C (dose: 16.0 mg/kg/injection, schedule: Q02DX008 (ip), vehicle: saline): 158 % of control | T/C (dose: 16.0 mg/kg/injection, schedule: Q## X008 (ip), vehicle: saline): 112 % of control | T/C (dose: 16.0 mg/kg/injection, schedule: Q## X016 (ip), vehicle: saline): 115 % of control | T/C (dose: 16.0 mg/kg/injection, schedule: Q## X040 (ip), vehicle: saline): 167 % of control | T/C (dose: 20.0 mg/kg/injection, schedule: Q01DX001 (ip), vehicle: carboxymethylcellulose (CMC)): 165 % of control | T/C (dose: 20.0 mg/kg/injection, schedule: Q01DX001 (sc), vehicle: saline): 109 % of control | T/C (dose: 20.0 mg/kg/injection, schedule: Q## X003 (ip), vehicle: saline): 192 % of control | T/C (dose: 20.0 mg/kg/injection, schedule: Q## X032 (ip), vehicle: saline): 124 % of control | T/C (dose: 22.5 mg/kg/injection, schedule: Q## X004 (ip), vehicle: saline): 167 % of control | T/C (dose: 24.0 mg/kg/injection, schedule: Q01DX001 (ip), vehicle: saline): 154 % of control | T/C (dose: 26.0 mg/kg/injection, schedule: Q01DX001 (ip), vehicle: carboxymethylcellulose (CMC)): 151 % of control | T/C (dose: 27.0 mg/kg/injection, schedule: Q01DX001 (oral), vehicle: saline): 116 % of control | T/C (dose: 30.0 mg/kg/injection, schedule: Q01DX001 (ip), vehicle: carboxymethylcellulose (CMC)): 157 % of control | T/C (dose: 30.0 mg/kg/injection, schedule: Q01DX001 (ip), vehicle: saline): 150 % of control and 162 % of control | T/C (dose: 30.0 mg/kg/injection, schedule: Q01DX001 (sc), vehicle: saline): 121 % of control | T/C (dose: 30.0 mg/kg/injection, schedule: Q01DX Z (ip), vehicle: carboxymethylcellulose (CMC)): 95 % of control | T/C (dose: 30.0 mg/kg/injection, schedule: Q## X003 (ip), vehicle: saline): 182 % of control | T/C (dose: 32.0 mg/kg/injection, schedule: Q02DX008 (ip), vehicle: saline): 111 % of control | T/C (dose: 32.0 mg/kg/injection, schedule: Q## X008 (ip), vehicle: saline): 185 % of control | T/C (dose: 32.0 mg/kg/injection, schedule: Q## X016 (ip), vehicle: saline): 151 % of control | T/C (dose: 32.0 mg/kg/injection, schedule: Q## X032 (ip), vehicle: saline): 168 % of control and 169 % of control | T/C (dose: 36.0 mg/kg/injection, schedule: Q01DX009 (oral), vehicle: saline): 106 % of control | T/C (dose: 40.0 mg/kg/injection, schedule: Q01DX001 (oral), vehicle: saline): 118 % of control | T/C (dose: 40.0 mg/kg/injection, schedule: Q## X032 (ip), vehicle: saline): 166 % of control | T/C (dose: 45.0 mg/kg/injection, schedule: Q01DX001 (ip), vehicle: carboxymethylcellulose (CMC)): 157 % of control | T/C (dose: 48.0 mg/kg/injection, schedule: Q01DX009 (oral), vehicle: saline): 90 % of control | T/C (dose: 48.0 mg/kg/injection, schedule: Q## X008 (ip), vehicle: saline): 191 % of control | T/C (dose: 60.0 mg/kg/injection, schedule: Q01DX001 (oral), vehicle: saline): 124 % of control | T/C (dose: 64.0 mg/kg/injection, schedule: Q## X008 (ip), vehicle: saline): 204 % of control and 229 % of control | T/C (dose: 64.0 mg/kg/injection, schedule: Q## X024 (ip), vehicle: saline): 88 % of control | T/C (dose: 90.0 mg/kg/injection, schedule: Q01DX001 (oral), vehicle: saline): 124 % of control | T/C (dose: 90.0 mg/kg/injection, schedule: Q01DX001 (sc), vehicle: saline): 118 % of control | T/C (dose: 96.0 mg/kg/injection, schedule: Q## X008 (ip), vehicle: saline): 114 % of control | T/C (dose: 100.0 mg/kg/injection, schedule: Q01DX001 (ip), vehicle: saline): 117 % of control | T/C (dose: 120.0 mg/kg/injection, schedule: Q01DX001 (ip), vehicle: saline): 113 % of control and 87 % of control | T/C (dose: 180.0 mg/kg/injection, schedule: Q01DX001 (oral), vehicle: saline): 101 % of control | T/C (dose: 360.0 mg/kg/injection, schedule: Q01DX001 (oral), vehicle: saline): 92 % of control
